Test results: the SangsterLogP compilation

Row | Compound | logP
1 | c1ccc(-c2cc3ccccn3c2)cc1 | 4.29
2 | COc1ccc(-c2cc3ccccn3c2)cc1 | 4.2
3 | Clc1cccc(-c2cc3ccccn3c2)c1 | 5.14
4 | Cc1cccc(-c2ccc3cccn3c2)c1 | 4.87
5 | Cc1ccc(-c2cc3ccccn3c2)cc1 | 4.96
6 | c1ccn2cccc2c1 | 2.49
7 | Clc1ccc(-c2cc3ccccn3c2)cc1 | 5.2
8 | Brc1cccc(-c2cc3ccccn3c2)c1 | 5.31
9 | COc1cccc(-c2cc3ccccn3c2)c1 | 4.14
10 | Brc1ccc(-c2cc3ccccn3c2)cc1 | 5.43
